Experimental data reported in US6017886A, “Use of NDF peptide as growth factor for sensory epithelium” (Amgen Inc., priority 1999, dated 2000).

Columns and labels:
Format in all cases: cell-based
[1] = tested on: utricular epithelium from seven day-old rats; assay: BrdU incorporation (mitogenic activity) in primary culture of infant rat utricular sensory epithelium; settings: for number of BrdU-positive nuclei per piece of epithelium: 50 ng/ml, seventy-two hours culture, infant (seven day-old) rat epithelium, control 50±7
Experimental: (§1) Sensory edithelial cells obtained from utricles in the inner ear of both seven day-old (infant) rats and six week-old (adult) rats were isolated with the use of thermolysin treatment; see Corwin et al., Abstracts of the Association for Research in Otolaryngology, Volume 18, page 87 (1995). All edges were trimmed away and the central portion of the epithelium was cut into quarters. Epithelial cells from the infant rats were cultured in DMEM/F12 with 10% FBS (Gibco BRL, Grand Island, N.Y.), and 3 micrograms per milliliter (μg/ml) of mitosis tracer BrdU (Aldrich Chemicals, Milwaukee, Wis.) for seventy-two hours, with or without 50 nanograms per milliliter (ng/ml) of the peptide of SEQ ID NO: 1 or 50 ng/ml of recombinant derived FGF-10, recombinant derived FGF-16, recombinant derived ciliary-derived neurotrophic factor (CNTF), recombinant derived neurotrophic growth facor (NGF), recombinant derived glial-derived neurotrophic factor (GDNF), recombinant derived keratinocyte growth factor (KGF), or a control (no growth factor present). The experiment was ended by fixing in 4% paraformaldehyde for one hour.
After several washes, the explants were immunostained for calretinin (a vestibular organ hair cell marker) using rabbit antiserum (SWant Swiss Antibodies, Belinzona, Switzerland), diluted 1:10,000. The secondary antibody was goat anti-rabbit immunoglobulin conjugated to biotin, diluted 1:1,000. Extensive washes were followed by incubating the explants with egg white avidin conjugated to Cy3, diluted 1:1,000. The explants were fixed again with paraformaldehyde as described above, then processed for BrdU immunostaining (a measure of cell proliferation) using standard immunostaining protocols. The mouse monoclonal ant-BrdU antibody was obtained from Caltag Laboratories of San Franscisco, Calif. The secondary antibody, a goat anti-mouse conjugated to FITC, was obtained from Antibodies, Inc. of Davis, Calif.

[2] = tested on: adult rat utricular epithelium; assay: BrdU incorporation (mitogenic activity) in primary culture of adult rat utricular sensory epithelium; settings: adult (six week-old) rat, thirteen days culture, factor added for the last five days, BrdU last two days
Experimental: as §1
For the adult rats, the total time for cell culture was thirteen days, with the peptide of SEQ ID NO: 1 or other growth factor being added for the last five days and the BrdU ([…]) for the last two days. The experiment was ended as above by fixing the explants in paraformaldehyde. […]

[3] = tested on: utricular cell line derived from a transgenic mouse; assay: Cell proliferation by ELISA for BrdU in established utricular cell line; settings: 50 ng/ml added twenty-four hours prior to fixation, BrdU final sixteen hours
Experimental: An established utricular cell line was derived from a transgenic mouse, using the procedure described by Gu et al. in Abstracts of the Association for Research in Otolaryngology, Volume 21, page 16 (1998). The cell line was cultured at 37° C. for three days in DMEM/F12 (Gibco BRL), containing N2 supplement (Sigma Chemical Company, St. Louis, Mo.) in a proportion of 1:100, under conditions restricting oncogene expression. For the treated group, fifty nanograms per milliliter of the peptide of SEQ ID NO: 1 were added twenty-four hours prior to fixation. Three micrograms per milliliter of BrdU (Aldrich Chemicals) were added for the final sixteen hours.
Cell proliferation was measured by ELISA for BrdU. Briefly, cells were fixed with 4% paraformaldehyde (Amersham, Life Sciences, Cleveland, Ohio) for one hour at room temperature. After treatment with 2N HCl for twenty minutes, the cells were washed and then sequentially incubated for one hour with a monocolonal antibody against BrdU (Caltag Laboratories) and horse anti-mouse antibody conjugated to biotin (Vector Laboratories, Burlingame, Calif.). After washing, the cells were further incubated with Europium streptavidin (Wallac Inc., Gaithersburg, Md.) diluted 1:1,000 and processed for time-resolved fluorescence in accordance with the manufacturer's recommendations. The signal was read on a Victor 1420 multi-label counter (Wallac Inc.).

[4] = tested on: young rat utricular sensory epithelial cells; assay: Comparison with other NDF/heregulins, BrdU-positive nuclei in primary culture; settings: 50 ng/ml, FIG. 5
Experimental: as §1
After several washes, the explants were immunostained for calretinin (a vestibular organ hair cell marker) using rabbit antiserum (SWant Swiss Antibodies, Belinzona, Switzerland), diluted 1:10,000. […]

FGF-16: recombinant derived FGF-16 [reference compound]
number of BrdU-positive nuclei per piece of epithelium [1]: 100±16

SHLVKCAEKEKTFCVNGGECFMVKDLSNPSRYLCKCQPGFTGARCQNYVMAS [SEQ ID NO: 1, hybrid form derived from the EGF-like domains of NDF-α and NDF-β]
increase in proliferation of adult rat sensory epithelial cells over the control group [2]: 32.5 fold
ELISA reading (BrdU) relative to control (untreated) group [3]: 1.7 times
number of BrdU-positive nuclei per piece of epithelium [1]: 397±33
presence of BrdU-positive nuclei in supporting cells versus control (untreated) cells ([1]; infant rat sensory epithelium primary culture, FIGS. 4A and 4B): very noticeable increase
increase in induction of cell proliferation over the control [4]: 29 fold

NGF: recombinant derived neurotrophic growth facor (NGF) [reference compound]
number of BrdU-positive nuclei per piece of epithelium [1]: 50±9
